Test results reported in ChEMBL document CHEMBL1201862, “PubChem BioAssay data set” (2004).
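In this assay, cells in 96-well plates receive the compound at five concentrations for 48 hours. Endpoints are linearly interpolated between the surrounding concentrations. GI50 = concentration required for 50% inhibition of growth.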 The source made the active and inactive calls. Cut-off read from the data, not from the text of the source: active = GI50 up to about 1.1 µM and inactive = higher.

Columns and labels:
Experiment in all cases: DTP human tumour cell line panel, 48 h
BT-549 = test system: BT-549
HCT-15 = test system: HCT-15
HOP-62 = test system: HOP-62
HT-29 = test system: HT-29
IGROV-1 = test system: IGROV-1
K562 = test system: K562
MDA-MB-231 = test system: MDA-MB-231
Malme-3M = test system: Malme-3M
NCI/ADR-RES = test system: NCI/ADR-RES
OVCAR-8 = test system: OVCAR-8
RPMI-8226 = test system: RPMI-8226
SF-295 = test system: SF-295
SK-MEL-5 = test system: SK-MEL-5
SK-OV-3 = test system: SK-OV-3
SN12C = test system: SN12C
SR = test system: SR
U-251 = test system: U-251
UACC-257 = test system: UACC-257
UACC-62 = test system: UACC-62
A498 = test system: A498

Structure (SMILES) | GI50 (BT-549) | GI50 (HCT-15) [µM] | GI50 (HOP-62) | GI50 (HT-29) | GI50 (IGROV-1) | GI50 (K562) | GI50 (MDA-MB-231) | GI50 (Malme-3M) | GI50 (NCI/ADR-RES) | GI50 (OVCAR-8) | GI50 (RPMI-8226) | GI50 (SF-295) | GI50 (SK-MEL-5) | GI50 (SK-OV-3) | GI50 (SN12C) | GI50 (SR) | GI50 (U-251) | GI50 (UACC-257) | GI50 (UACC-62) | GI50 (A498)
COC(=O)C1=C(C)NC(C)=C(C(=O)OC)C1c1ccc(/[N+]([O-])=C/c2ccccc2)cc1 | 18.8 µM (inactive) | 42.5 | 83.2 µM (inactive) | 48.9 µM (inactive) | > 100 µM (inactive) | 23.6 µM (inactive) | 41.1 µM (inactive) | 17.3 µM (inactive) | 66.5 µM (inactive) | 19.7 µM (inactive) | 66.1 µM (inactive) | 46.9 µM (inactive) | > 100 µM (inactive) | > 100 µM (inactive) | 51.5 µM (inactive) | 24.1 µM (inactive) | > 100 µM (inactive) | 29.6 µM (inactive) | 37.6 µM (inactive) | –
c1ccc(Cn2c(-c3ccc(-c4ccccc4)cc3)cc3ccccc32)cc1 | > 100 µM (inactive) | > 100 | > 100 µM (inactive) | > 100 µM (inactive) | 67.5 µM (inactive) | – | > 100 µM (inactive) | 60 µM (inactive) | > 100 µM (inactive) | > 100 µM (inactive) | > 100 µM (inactive) | > 100 µM (inactive) | > 100 µM (inactive) | > 100 µM (inactive) | > 100 µM (inactive) | > 100 µM (inactive) | > 100 µM (inactive) | > 100 µM (inactive) | > 100 µM (inactive) | –
Cc1ccc(S(=O)(=O)C2=C([Si](C)(C)C)C3CC2[C@@H]2C4C=CC(CC4)[C@H]32)cc1 (stereo partly specified) | > 100 µM (inactive) | > 100 | 40.8 µM (inactive) | > 100 µM (inactive) | 85.5 µM (inactive) | > 100 µM (inactive) | 26.5 µM (inactive) | > 100 µM (inactive) | > 100 µM (inactive) | > 100 µM (inactive) | – | 28.4 µM (inactive) | > 100 µM (inactive) | 45.1 µM (inactive) | > 100 µM (inactive) | > 100 µM (inactive) | 23.9 µM (inactive) | > 100 µM (inactive) | 60.5 µM (inactive) | > 100 µM (inactive)
O=C1C=CC(=O)N1n1c(-c2ccccc2)n[nH]c1=O | > 100 µM (inactive) | > 100 | > 100 µM (inactive) | > 100 µM (inactive) | > 100 µM (inactive) | > 100 µM (inactive) | > 100 µM (inactive) | > 100 µM (inactive) | > 100 µM (inactive) | > 100 µM (inactive) | – | > 100 µM (inactive) | > 100 µM (inactive) | > 100 µM (inactive) | > 100 µM (inactive) | > 100 µM (inactive) | > 100 µM (inactive) | > 100 µM (inactive) | > 100 µM (inactive) | > 100 µM (inactive)
O=C(Nc1ccccc1)c1cc2c(cc1Cl)SC(NNCCO)=NS2(=O)=O | > 100 µM (inactive) | > 100 | > 100 µM (inactive) | > 100 µM (inactive) | > 100 µM (inactive) | > 100 µM (inactive) | > 100 µM (inactive) | – | > 100 µM (inactive) | > 100 µM (inactive) | > 100 µM (inactive) | > 100 µM (inactive) | > 100 µM (inactive) | > 100 µM (inactive) | – | > 100 µM (inactive) | > 100 µM (inactive) | > 100 µM (inactive) | > 100 µM (inactive) | > 100 µM (inactive)
O=C(O)Cn1cc([N+](=O)[O-])c(=O)c2ccccc21 | > 100 µM (inactive) | > 100 | > 100 µM (inactive) | > 100 µM (inactive) | > 100 µM (inactive) | > 100 µM (inactive) | 18.8 µM (inactive) | > 100 µM (inactive) | > 100 µM (inactive) | > 100 µM (inactive) | – | > 100 µM (inactive) | > 100 µM (inactive) | > 100 µM (inactive) | > 100 µM (inactive) | > 100 µM (inactive) | > 100 µM (inactive) | > 100 µM (inactive) | > 100 µM (inactive) | > 100 µM (inactive)
Clc1ccc(C(c2ccc(Cl)cc2)c2cncnc2)cc1 | 13.9 µM (inactive) | 19.6 | 17.2 µM (inactive) | 15.1 µM (inactive) | 16 µM (inactive) | 21.9 µM (inactive) | 17.7 µM (inactive) | 19.1 µM (inactive) | 18.7 µM (inactive) | 20.3 µM (inactive) | 34.4 µM (inactive) | 17.9 µM (inactive) | 13.2 µM (inactive) | 16 µM (inactive) | 18.4 µM (inactive) | 31.8 µM (inactive) | 17.3 µM (inactive) | 19.3 µM (inactive) | 15.2 µM (inactive) | –
